Laboratory results: patent US20060211632A1, “PXR agonists for cardiovascular disease” (priority 2005, published 2006)

Assays:
[1] = test system: serum HDL-C; test: Serum HDL-C in wild-type mice after 7 days of treatment; format: in vivo, wild-type (WT; C57BL/6) mice; details: for HDL-C relative to controls (methylcellulose): gavage once daily 7 days, 100 mg/kg, gemfibrozil 20 mg/kg, troglitazone 6 and 60 mg/Kg, Dunnett's procedure
Protocol: In all cases methylcellulose was used as a vehicle control. These chemicals were administered, as a suspension in 1% methylcellulose (vehicle) by gavage using a 20 G—1½-inch feeding needle. The animals were treated in groups of three and for each treated group two mice were treated simultaneously with methylcellulose (vehicle). Each treatment was given once daily in the morning for seven days. […] The volume of vehicle used to suspend the treatment drugs and the dose of vehicle for control group was 7 ml/kg. Doses were selected based on the results obtained from previous studies in rats except for troglitazone and hyperforin, for which doses were weight-adjusted using estimates of average daily human doses as reference. After the completion of the treatment (i.e. on day 8), blood samples were collected from the tail of the animals for serum HDL-C and ApoA1 determination. Blood samples were allowed to clot for 2 hours, centrifuged at 14,000 rpm for 20 minutes, and serum was collected. The serum samples were then stored at −20° C. for up to 24 hours before quantitative determination of HDL-C and ApoA1. HDL-C was determined quantitatively in the serum using Liquid Direct HDL kits. The kit contained reagent 1, reagent 2, and HDL calibrator. The assay consisted of two steps. […] The peroxide byproduct of this reaction is rendered non-colored via catalase reduction. […] In this second step, the catalase is inhibited, the remaining HDL cholesterol specifically reacts with cholesterol esterase and cholesterol oxidase, and in the presence of peroxidase the peroxide byproduct reacts with 4-aminoantipyrine and HDAOS to form a colored […] dye. Both these reactions were allowed to occur at 37° C. […] Each sample was analyzed twice, and the average of both readings was used. Statistical treatments for HDL-C and apoA1 in mice were identical. For each of these variables, three basic analyses were performed, one for WT mice, one for PXR-KOs, and one for the two groups combined. Statistical analysis was performed in SAS (SAS Release 8, 1999, SAS Institute Inc., Cary, N.C.). In all cases the primary method of comparing treatments was ANOVA. Prior to performing this analysis, both variables were normalized by the geometric mean of their associated controls. Normality and homoscedasticity (constancy of variance across groups) were evaluated, with an appropriate data transformation (logarithmic) applied if necessary. These properties were checked before (to evaluate the need for transformation) and after transformation (to confirm the adequacy of the transformation) using normal probability plots and Levene's test for equality of variances (Snedecor et al., Statistical Methods, 8th Edition, Iowa State University Press, pp. 59-62 and 252-253, 1989). […]

[2] = test system: serum ApoA1; test: Serum apoA1 in PXR-KO mice after 7 days of treatment; format: in vivo; details: for apoA1 relative to control: gavage once daily 7 days, gemfibrozil 20 mg/kg, others 100 mg/kg
Protocol: (§1) PXR-KO mice were treated with either rifampicin, gemfibrozil, or CDD 3540. In all cases methylcellulose was used as a vehicle control. These chemicals were administered, as a suspension in 1% methylcellulose (vehicle) by gavage using a 20 G—1½-inch feeding needle. The animals were treated in groups of three and for each treated group two mice were treated simultaneously with methylcellulose (vehicle). Each treatment was given once daily in the morning for seven days. The doses were 100 mg/kg for CTZ, rifampicin, CDD 3540, phenobarbital and TCPOBOP, 6 mg/kg and 60 mg/Kg for troglitazone and 0.175 mg/Kg and 1.75 mg/Kg for hyperforin, and for gemfibrozil 20 mg/Kg and 100 mg/Kg. The volume of vehicle used to suspend the treatment drugs and the dose of vehicle for control group was 7 ml/kg.
(§2) After the completion of the treatment (i.e. on day 8), blood samples were collected from the tail of the animals for serum HDL-C and ApoA1 determination. Blood samples were allowed to clot for 2 hours, centrifuged at 14,000 rpm for 20 minutes, and serum was collected. The serum samples were then stored at −20° C. for up to 24 hours before quantitative determination of HDL-C and ApoA1.
An immuno-turbidimetric assay was developed for quantitative determination of ApoA1 in mouse serum. Commercially available stock solution of purified mouse ApoA1 (79 mg/dl) was used to construct a standard curve. A potassium phosphate buffer solution was prepared by diluting 1 ml of monobasic 1.0 M potassium phosphate buffer to 10 ml with distilled water, and the pH of the solution was adjusted to 7.2 using 0.1 N NaOH. […] 1 μl of mouse plasma was mixed with 3 μl of distilled water for quantitation of apoA1. […] Absorbance was measured at 580 nm using a Beckmann DU640 Spectrophotometer. Each sample or standard was analyzed twice, and the average of both readings was used. […]
Statistical treatments for HDL-C and apoA1 in mice were identical. […] Normality and homoscedasticity (constancy of variance across groups) were evaluated, with an appropriate data transformation (logarithmic) applied if necessary. […]

[3] = test system: serum ApoA1; test: Serum apoA1 in wild-type mice after 7 days of treatment (immuno-turbidimetric assay); format: in vivo, wild-type (WT; C57BL/6) mice; details: for apoA1 relative to controls (methylcellulose): gavage once daily 7 days, 100 mg/kg, gemfibrozil 20 mg/Kg, troglitazone 6 and 60 mg/Kg, Dunnett's procedure
Protocol: as §1, §2
An immuno-turbidimetric assay was developed for quantitative determination of ApoA1 in mouse serum. Commercially available stock solution of purified mouse ApoA1 (79 mg/dl) was used to construct a standard curve. A potassium phosphate buffer solution was prepared by diluting 1 ml of monobasic 1.0 M potassium phosphate buffer to 10 ml with distilled water, and the pH of the solution was adjusted to 7.2 using 0.1 N NaOH. […] A dilution of 1:4000 of the stock concentration was used per the manufacturer's recommendation. The standard curve was prepared with 0, 39.5, 79, and 158 mg/dl of mouse apoA1. 1 μl of mouse plasma was mixed with 3 μl of distilled water for quantitation of apoA1. 500 μl of buffer solution was added to 4 μl of total sample volume prepared as described. After 5 minutes, 100 μl of antibody solution was added. The mixture was allowed to incubate at 37° C. for 3 minutes. Absorbance was measured at 580 nm using a Beckmann DU640 Spectrophotometer. Each sample or standard was analyzed twice, and the average of both readings was used. Serum ApoA1 concentrations from control mice were also compared with the normal ApoA1 levels in mice, obtained from the literature, to affirm the validity of the assay procedure.
Statistical treatments for HDL-C and apoA1 in mice were identical. For each of these variables, three basic analyses were performed, one for WT mice, one for PXR-KOs, and one for the two groups combined. Statistical analysis was performed in SAS (SAS Release 8, 1999, SAS Institute Inc., Cary, N.C.). In all cases the primary method of comparing treatments was ANOVA. Prior to performing this analysis, both variables were normalized by the geometric mean of their associated controls. Normality and homoscedasticity (constancy of variance across groups) were evaluated, with an appropriate data transformation (logarithmic) applied if necessary. These properties were checked before (to evaluate the need for transformation) and after transformation (to confirm the adequacy of the transformation) using normal probability plots and Levene's test for equality of variances (Snedecor et al., Statistical Methods, 8th Edition, Iowa State University Press, pp. 59-62 and 252-253, 1989). […]

[4] = test system: CYP3A; test: CYP3A activity in rats (hepatic microsomal EDM activity, ethosuximide clearance); format: in vivo, rat
Protocol: (§3) Treatments were administered by gavage once daily in the morning for eight (8) days.
Ethosuximide was prepared as a 3.5% (w/v) solution dissolved in normal saline. Ethosuximide was administered in a dose of 35 mg/kg via tail vein injection 24 hours following the eighth pretreatment dose.
(§4) Whole blood was collected by cardiac puncture under CO2 anesthesia 8 hours following ethosuximide infusion. Animals were then sacrificed using CO2 and cervical dislocation. Livers were excised and used for analysis of erythromycin demethylase activity (as described in the Slama et al. reference) and hepatic apoA1 mRNA. Plasma was separated from whole blood anticoagulated with 5 mM EDTA at room temperature using a bench top centrifuge (5000 rpm) for 5 minutes. Plasma was stored unpreserved at −20° C. for up to 5 days, and subsequently analyzed for ethosuximide and for HDL-C. Concentrations of ethosuximide and HDL-C were measured in plasma by fluorescence polarization immunoassay (fpia) using a TDx analyzer (Abbott Laboratories, Irving, Tex.) and commercially available reagents (Abbott Laboratories, Abbott Park, Ill.).

[5] = test system: HDL-C; test: HDL-C in rats after 8 days of treatment; format: in vivo, rat
Protocol: as §3, §4

[6] = test system: hepatic apoA1 mRNA; test: Hepatic apoA1 mRNA in rats after 8 days of treatment; format: in vivo, rat
Protocol: as §4, with “Treatments were administered by gavage once daily in the morning for eight (8) days. Whole” for “Whole”, “-20°” for “−20°”, “Ill.). […] Hepatic apoA1 mRNA was measured by Northern Blot hybridization to total hepatic RNA with oligonucleotides for apoprotein A1 and elongation factor-1α (EF-1α). The procedure was similar to that described in the Slama et al. reference for hepatic CYP3A mRNA. […]” for “Ill.).”

[7] = test system: hepatic apoA1 mRNA; test: Time course of hepatic apoA1 mRNA in rats (Northern blot); format: in vivo, rat; details: 50 mg/Kg by gavage once daily, beginning after treatment day 2 and constant thereafter, p<0.05 vs vehicle controls
Protocol: Hepatic apoA1 mRNA was measured by Northern Blot hybridization to total hepatic RNA with oligonucleotides for apoprotein A1 and elongation factor-1α (EF-1α). The procedure was similar to that described in the Slama et al. reference for hepatic CYP3A mRNA. The following oligonucleotide sequence used for rat apoA1 mRNA was based on the nucleotide sequence for rat apoA1 described by Haddad et al. (“Linkage, evolution and expression of the rat apolipoprotein A-1, C-III, and A-IV genes,” J Biol Chem 1986; 261: 13268-13277): 3′ CTACGTCAGTTCCTGTCGCCGTCTCTGATACACAGGGTCAAACTTAGGAGGTGAAACCCG 5′.
[…] were dosed with CDD 3540 (50 mg/Kg) by gavage once daily for 8 days, and three rats were treated with methylcellulose (vehicle controls). Groups of three treated rats were sacrificed at 6 and 12 h after the first dose, 12 and 24 h after the second dose, and at 12 hours after doses 4-8, respectively. Hepatic apoA1 mRNA was quantitated by northern blot analysis as described above.
Temporal differences in hepatic apoA1 mRNA in rats were evaluated by a simple Analysis of Variance (ANOVA) and a Tukey's post-hoc test.

Row | SMILES | increase in HDL-C ([1]; 100 mg/Kg once daily 7 days) | apoA1 relative to control [2] | increase in apoA1 relative to control ([2]; gemfibrozil 20 mg/kg once daily 7 days) [fold] | HDL-C relative to controls (methylcellulose) [1] | dose at peak of the dose-response curve ([3]; apoA1 and HDL-C, declined with higher doses) [mg/kg] | apoA1 relative to controls (methylcellulose) [3] | CYP3A activity [4] | HDL-C [5] | increase in apoA1 relative to controls ([3]; 100 mg/kg once daily 7 days) [fold] | apoA1 [6] | increase in hepatic apoA1 [7] [%]
1 | CO[C@H]1/C=C/O[C@@]2(C)Oc3c(C)c(O)c4c(O)c(c(/C=N/N5CCN(C)CC5)c(O)c4c3C2=O)NC(=O)/C(C)=C\C=C\[C@H](C)[C@H](O)[C@@H](C)[C@@H](O)[C@@H](C)[C@H](OC(C)=O)[C@@H]1C [rifampin, rifampicin] | about 25% | – | – | – | – | – | – | – | – | – | –
2 | Cc1ccc(C)c(OCCCC(C)(C)C(=O)O)c1 [gemfibrozil] | – | significantly increase | ~1.7 | significantly elevated | 20 | significantly elevated | – | – | – | – | –
3 | Clc1cnc(Oc2ccc(Oc3ncc(Cl)cc3Cl)cc2)c(Cl)c1 [TCPOBOP, 1,4-bis[2-(3,5-dichloropyridyloxy)]benzene] | – | – | – | did not significantly elevate | – | did not significantly elevate | – | – | – | – | –
4 | Fc1ccc(C(c2ccc(F)cc2)(c2ccc(F)cc2)n2ccnc2)cc1 [CDD 3540] | – | neither rifampin nor CDD 3540 elicited significant changes | – | significantly elevated | – | significantly elevated | increase | increase | ~3.7 | increase | ~45
